Numbers after ± are expanded uncertainties.
Details: Liquid, Vibrating tube method

CCCCCCC(=O)OCC(COC(=O)CCCCCC)(COC(=O)CCCCCC)COC(=O)CCCCCC [pentaerythritol tetraheptanoate]
Details	mass density [kg/m3]
343.16 K, 13701 kPa	950.5 ± 1.2
343.16 K, 13714 kPa	950.6 ± 1.2
343.16 K, 13726 kPa	950.6 ± 1.2
343.16 K, 13738 kPa	950.7 ± 1.2
343.16 K, 13753 kPa	950.7 ± 1.2
343.16 K, 13764 kPa	950.6 ± 1.2
343.16 K, 13779 kPa	950.7 ± 1.2
343.16 K, 13792 kPa	950.7 ± 1.2
343.16 K, 13806 kPa	950.8 ± 1.2
343.16 K, 13818 kPa	950.6 ± 1.2
343.16 K, 14528 kPa	951.2 ± 1.2
343.16 K, 14542 kPa	951.2 ± 1.2
343.16 K, 16080 kPa	952.4 ± 1.2
343.16 K, 16100 kPa	952.3 ± 1.2
343.16 K, 16118 kPa	952.2 ± 1.2
343.16 K, 32564 kPa	962.8 ± 1.2
343.16 K, 32603 kPa	963 ± 1.2
343.16 K, 32650 kPa	963.1 ± 1.2
343.16 K, 32688 kPa	963 ± 1.2
343.17 K, 14556 kPa	951.3 ± 1.2
343.17 K, 14573 kPa	951.2 ± 1.2
343.17 K, 14631 kPa	951.4 ± 1.2
343.17 K, 14645 kPa	951.3 ± 1.2
343.17 K, 14662 kPa	951.3 ± 1.2
343.17 K, 14676 kPa	951.3 ± 1.2
343.17 K, 14690 kPa	951.3 ± 1.2
343.17 K, 14707 kPa	951.4 ± 1.2
343.17 K, 14721 kPa	951.4 ± 1.2
343.17 K, 14735 kPa	951.3 ± 1.2
343.17 K, 14750 kPa	951.3 ± 1.2
343.17 K, 14767 kPa	951.3 ± 1.2
343.17 K, 14782 kPa	951.4 ± 1.2
343.17 K, 14796 kPa	951.5 ± 1.2
343.17 K, 14814 kPa	951.5 ± 1.2
343.17 K, 14828 kPa	951.3 ± 1.2
343.17 K, 14843 kPa	951.4 ± 1.2
343.17 K, 14858 kPa	951.4 ± 1.2
343.17 K, 14873 kPa	951.5 ± 1.2
343.17 K, 14890 kPa	951.5 ± 1.2
343.17 K, 14902 kPa	951.5 ± 1.2
343.17 K, 14922 kPa	951.4 ± 1.2
343.17 K, 14937 kPa	951.4 ± 1.2
343.17 K, 14952 kPa	951.5 ± 1.2
343.17 K, 14966 kPa	951.6 ± 1.2
343.17 K, 14984 kPa	951.7 ± 1.2
343.17 K, 14999 kPa	951.6 ± 1.2
343.17 K, 15013 kPa	951.5 ± 1.2
343.17 K, 15032 kPa	951.7 ± 1.2
343.17 K, 15048 kPa	951.5 ± 1.2
343.17 K, 15063 kPa	951.4 ± 1.2
343.17 K, 15077 kPa	951.6 ± 1.2
343.17 K, 15092 kPa	951.6 ± 1.2
343.17 K, 15110 kPa	951.6 ± 1.2
343.17 K, 15125 kPa	951.6 ± 1.2
343.17 K, 15140 kPa	951.7 ± 1.2
343.17 K, 15158 kPa	951.6 ± 1.2
343.17 K, 15173 kPa	951.7 ± 1.2
343.17 K, 15191 kPa	951.6 ± 1.2
343.17 K, 15206 kPa	951.6 ± 1.2
343.17 K, 15221 kPa	951.7 ± 1.2
343.17 K, 15240 kPa	951.7 ± 1.2
343.17 K, 15255 kPa	951.6 ± 1.2
343.17 K, 15270 kPa	951.8 ± 1.2
343.17 K, 15286 kPa	951.7 ± 1.2
343.17 K, 15305 kPa	951.7 ± 1.2
343.17 K, 15320 kPa	951.9 ± 1.2
343.17 K, 15338 kPa	951.6 ± 1.2
343.17 K, 15354 kPa	951.8 ± 1.2
343.17 K, 15369 kPa	951.6 ± 1.2
343.17 K, 15387 kPa	951.9 ± 1.2
343.17 K, 15403 kPa	951.8 ± 1.2
343.17 K, 15419 kPa	952 ± 1.2
343.17 K, 15437 kPa	951.8 ± 1.2
343.17 K, 15453 kPa	951.8 ± 1.2
343.17 K, 15469 kPa	951.8 ± 1.2
343.17 K, 15488 kPa	951.9 ± 1.2
343.17 K, 15504 kPa	951.9 ± 1.2
343.17 K, 15520 kPa	951.9 ± 1.2
343.17 K, 15536 kPa	951.9 ± 1.2
343.17 K, 15555 kPa	951.9 ± 1.2
343.17 K, 15571 kPa	952 ± 1.2
343.17 K, 15587 kPa	951.9 ± 1.2
343.17 K, 15606 kPa	951.8 ± 1.2
343.17 K, 15622 kPa	952 ± 1.2
343.17 K, 15638 kPa	952.1 ± 1.2
343.17 K, 15655 kPa	952.1 ± 1.2
343.17 K, 15674 kPa	952.1 ± 1.2
343.17 K, 15691 kPa	952 ± 1.2
343.17 K, 15707 kPa	952 ± 1.2
343.17 K, 15724 kPa	952.2 ± 1.2
343.17 K, 15743 kPa	952 ± 1.2
343.17 K, 15759 kPa	952.1 ± 1.2
343.17 K, 15778 kPa	952 ± 1.2
343.17 K, 15795 kPa	952.1 ± 1.2
343.17 K, 15812 kPa	952.2 ± 1.2
343.17 K, 15831 kPa	952.1 ± 1.2
343.17 K, 15848 kPa	952.2 ± 1.2
343.17 K, 15865 kPa	952.2 ± 1.2
343.17 K, 15884 kPa	952.1 ± 1.2
343.17 K, 15901 kPa	952.2 ± 1.2
343.17 K, 15918 kPa	952.3 ± 1.2
343.17 K, 15938 kPa	952.3 ± 1.2
343.17 K, 15955 kPa	952.2 ± 1.2
343.17 K, 15972 kPa	952.2 ± 1.2
343.17 K, 15989 kPa	952.3 ± 1.2
343.17 K, 16009 kPa	952.3 ± 1.2
343.17 K, 16025 kPa	952.2 ± 1.2
343.17 K, 16042 kPa	952.3 ± 1.2
343.17 K, 16062 kPa	952.2 ± 1.2
343.18 K, 14586 kPa	951.4 ± 1.2
343.18 K, 14600 kPa	951.2 ± 1.2
343.18 K, 14617 kPa	951.3 ± 1.2
